Measurements as given in PubChem BioAssay AID2060604 (Molecular Pharmacology Branch, DTP, NCI, 2025).
Values joined by “and” are separate entries in the source; they are usually repeats but may differ in a detail not shown here. Identical values can stand only once.

System: 379773-124-R-J2-PDC complex spheroids, viability % test/control
Test: Anticancer human tumor 379773-124-R-J2-PDC patient-derived endometrial carcinoma cell line growth inhibition [CLK]
Settings: for viability, T/C: stronger effect = lower value
From the text: A high-throughput screen of multi-cell type tumor spheroids was designed to identify active combinations of […] and targeted small molecules. Complex spheroids include a stromal component modeled by human endothelial cells (HUVEC) and fibroblasts modeled by human mesenchymal stem cells (MSCs). The concentration ranges selected for each drug and investigational agent were based upon clinically achievable concentrations if the clinical Cmax of the agent was known.
Compounds. The drugs and investigational agents: cirtuvivint (SM08502; NSC835563), CC-671 (NSC850746), vemurafenib (NSC761431), tapotoclax (NSC804041), sotorasib (NSC818433), adagrasib (NSC831453), MRTX-1133 (NSC836407), BAY2416964 (NSC825713), copanlisib (NSC816437), inavolisib (NSC800729), abemaciclib (NSC768073), osimertinib (NSC779217), entinostat (NSC756642), eltanexor (KPT-8602, NSC794443), venetoclax (NSC766270), ceralasertib (NSC777638), bortezomib (NSC756655), olaparib (NSC753686), talazoparib (NSC767125), alisertib (NSC759677), peposertib (NSC802822), gemcitabine (NSC613327), 5-fluorouracil (NSC19893), SN-38 (NSC673596), oxaliplatin (NSC266046), paclitaxel (NSC125973), and doxorubicin (NSC123127), were obtained from the National Cancer Institute (NCI) Developmental Therapeutics Program Chemical Repository. The FDA-approved anticancer drug set is available from the Developmental Therapeutics Program at https://dtp.cancer.gov/organization/dscb/obtaining/available plates.htm. […] The stock solutions were prepared in dimethyl sulfoxide (DMSO, Sigma-Aldrich, St. Louis, MO, cat. D2650), except for the platinum complexes which were prepared in saline (Quality Biological, Gaithersburg, MD, cat. 114-055-101), at 800-fold the tested concentration and stored at -70 degrees C prior to their use. All drugs and investigational agents were tested over a range starting from a high concentration at or near the clinical Cmax and decreasing in half-log increments. If the clinical Cmax for an agent had not been determined, the highest concentration tested was 10 microM.
Cell Culture. All cells were maintained in an incubator at 37 degrees C and 5% CO2 with 95% humidity. The PDC lines were cultured according to standard operating procedures established by the NCI PDMR. Briefly, all PDCs were thawed and cultured in Matrigel-coated flasks prepared with a working solution of 1X Ham's F-12 nutrient mix, without supplementation (Invitrogen, Waltham, MA, cat. 11765054), 100 U/mL penicillin-streptomycin (Invitrogen, cat. 15140122), and 2.5% Matrigel (Corning Inc., Corning, NY, cat. 354248) for the first three passages. The 947758-054-R-J2-PDC line was cultured in 6B/Colon 1A media, which includes advanced DMEM/F-12 (Thermo Fisher Scientific, cat. 12634028), 10 mM HEPES (Thermo Fisher Scientific, cat. 15630080), 1X GlutaMAX supplement (Thermo Fisher Scientific, cat. 35050061), 0.1 mg/mL primocin (InvivoGen, cat. ant-pm-2), 10% defined fetal bovine serum, heat inactivated (HyClone Laboratories Inc., cat. SH30070.03HI), 1.25 mM N-Acetyl-L-cysteine (Sigma-Aldrich, cat. A9165), 10 mM nicotinamide (Sigma-Aldrich, cat. N0636), 1X B-27 supplement (Thermo Fisher Scientific, cat. 17504044), 1X N-2 supplement (Thermo Fisher Scientific, cat. 17502048), and 10 microM Y-27632 dihydrochloride (Tocris Bioscience, cat. 1254). The 876862-298-R-J1-PDC was cultured in 6E media, which includes all 6B/Colon 1A media components plus 50% L-WRN conditioned media (ATCC, cat. CRL-3276), 50 ng/mL recombinant human EGF recombinant protein (hEGF; Thermo Fisher Scientific, cat. PHG0311), 10 ng/mL recombinant human fibroblast growth factor 10 (hGFG-10; PeproTech, cat. 100-26), 1 ng/mL recombinant human fibroblast growth factor 2 (hFGF-2; PeproTech, cat. 100-18B), and 1 µM prostaglandin E2 (PGE2; Tocris, cat. 2296). The 227483-062-R1-J1-PDC line was cultured in Panc media, containing all 6E components except hFGF-2, with the addition of 500 nM SB-431542 (Selleckchem, cat. S1067) and 10 nM gastrin (Tocris, cat. 3006). […]

[1] = curve of first compound, second compound 0.0316 µM
[2] = curve of first compound, second compound 0.1 µM
[3] = curve of first compound, second compound 0.316 µM
[4] = curve of first compound, second compound 1 µM
[5] = curve of first compound, second compound 3.16 µM
[6] = curve of first compound, second compound 10 µM
[7] = second compound 0.0316 µM, first compound 0.0316 µM
[8] = second compound 0.0316 µM, first compound 0.1 µM
[9] = second compound 0.0316 µM, first compound 0.316 µM
[10] = second compound 0.0316 µM, first compound 1 µM
[11] = second compound 0.0316 µM, first compound 3.16 µM
[12] = second compound 0.0316 µM, first compound 10 µM
[13] = second compound 0.1 µM, first compound 0.0316 µM
[14] = second compound 0.1 µM, first compound 0.1 µM
[15] = second compound 0.1 µM, first compound 0.316 µM
[16] = second compound 0.1 µM, first compound 1 µM
[17] = second compound 0.1 µM, first compound 3.16 µM
[18] = second compound 0.1 µM, first compound 10 µM
[19] = second compound 0.316 µM, first compound 0.0316 µM
[20] = second compound 0.316 µM, first compound 0.1 µM
[21] = second compound 0.316 µM, first compound 0.316 µM
[22] = second compound 0.316 µM, first compound 1 µM
[23] = second compound 0.316 µM, first compound 3.16 µM
[24] = second compound 0.316 µM, first compound 10 µM
[25] = second compound 1 µM, first compound 0.0316 µM
[26] = second compound 1 µM, first compound 0.1 µM
[27] = second compound 1 µM, first compound 0.316 µM
[28] = second compound 1 µM, first compound 1 µM
[29] = second compound 1 µM, first compound 3.16 µM
[30] = second compound 1 µM, first compound 10 µM
[31] = second compound 3.16 µM, first compound 0.0316 µM
[32] = second compound 3.16 µM, first compound 0.1 µM
[33] = second compound 3.16 µM, first compound 0.316 µM
[34] = second compound 3.16 µM, first compound 1 µM
[35] = second compound 3.16 µM, first compound 3.16 µM
[36] = second compound 3.16 µM, first compound 10 µM
[37] = second compound 10 µM, first compound 0.0316 µM
[38] = second compound 10 µM, first compound 0.1 µM
[39] = second compound 10 µM, first compound 0.316 µM
[40] = second compound 10 µM, first compound 1 µM
[41] = second compound 10 µM, first compound 3.16 µM
[42] = second compound 10 µM, first compound 10 µM
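Also: compound exposure lasted seven days before the viability readout.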
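For viability, T/C in this document: 100% = DMSO vehicle control wells.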

`CC1(C)CCC(CN2CCN(c3ccc(C(=O)NS(=O)(=O)c4ccc(NCC5CCOCC5)c([N+](=O)[O-])c4)c(Oc4cnc5[nH]ccc5c4)c3)CC2)=C(c2ccc(Cl)cc2)C1` + CN1CCN(c2cc(C(=O)Nc3cc4cc(-c5cnn(C)c5)ccc4cn3)ccn2)CC1 was tested, and the IC50 [1] was 4750 nM, the IC50 [2] was 5030 nM and the IC50 [3] was < 31.6 nM. The IC50 [4] was < 31.6 nM, the IC50 [5] was < 31.6 nM and the IC50 [6] was < 31.6 nM. The viability, T/C [7] was 99.5%, the viability, T/C [8] was 88.1% and the viability, T/C [9] was 86%. It also gave a viability, T/C [10] of 108%, a viability, T/C [11] of 74.1% and a viability, T/C [12] of 6.08%. For the same compound, the viability, T/C [13] was 84.1%, the viability, T/C [14] was 81.3% and the viability, T/C [15] was 88.3%. It also gave a viability, T/C [16] of 87.8%, a viability, T/C [17] of 83.1% and a viability, T/C [18] of 1.06%. For the same compound, the viability, T/C [19] was 26.2%, the viability, T/C [20] was 26.1% and the viability, T/C [21] was 26.7%. The viability, T/C [22] was 28.9%, the viability, T/C [23] was 24.3% and the viability, T/C [24] was 1.02%. The viability, T/C [25] was 0.19%, the viability, T/C [26] was 1.14% and the viability, T/C [27] was 0.4%. The viability, T/C [28] was 0.16%, the viability, T/C [29] was 0.08% and the viability, T/C [30] was 0.07%. The viability, T/C [31] was 0.86%, the viability, T/C [32] was 0.92% and the viability, T/C [33] was 2.05%. The viability, T/C [34] was 0.09%, the viability, T/C [35] was 0.64% and the viability, T/C [36] was 0.09%. For the same compound, the viability, T/C [37] was 0.1%, the viability, T/C [38] was 0.14% and the viability, T/C [39] was 0.15%. It also gave a viability, T/C [40] of 0.61%, a viability, T/C [41] of 3.58% and a viability, T/C [42] of 0.16%.
In the case of `C=CC(=O)Nc1cc(Nc2nccc(-c3cn(C)c4ccccc34)n2)c(OC)cc1N(C)CCN(C)C`, the viability, T/C (compound 0.000949 µM) is reported as 101% and 85.7%, the viability, T/C (compound 0.003 µM) is reported as 87.9% and 87.5% and the viability, T/C (compound 0.00949 µM) is reported as 91.7% and 74.8%. The viability, T/C (compound 0.03 µM) was 94.4% and 105%, the viability, T/C (compound 0.0949 µM) was 96.5% and 100% and the viability, T/C (compound 0.3 µM) was 98.5% and 90.8%. The IC50 (curve of compound) was > 300 nM.
In the case of `O=C(c1cc(Cc2n[nH]c(=O)c3ccccc23)ccc1F)N1CCN(C(=O)C2CC2)CC1`, the viability, T/C (compound 0.0316 µM) is reported as 83.1% and 108%, the viability, T/C (compound 0.1 µM) is reported as 89% and 86.6% and the viability, T/C (compound 0.316 µM) is reported as 89.2% and 84.2%. For the same compound, the viability, T/C (compound 1 µM) was 89.5% and 80.5%, the viability, T/C (compound 3.16 µM) was 81.5% and 78.6% and the viability, T/C (compound 10 µM) was 56.1% and 47%. The IC50 (curve of compound) was > 10000 nM.
For `Nc1ccn(C2OC(CO)C(O)C2(F)F)c(=O)n1` (stereo not drawn) + CNC(=O)c1ccc(Nc2nc(OC3CCCC3)c3c(-c4ccc5nc(C)oc5c4)c[nH]c3n2)c(OC)c1, the IC50 [1] was < 31.6 nM, the IC50 [2] was < 31.6 nM and the IC50 [3] was < 31.6 nM. For the same compound, the IC50 [4] was < 31.6 nM, the IC50 [5] was < 31.6 nM and the IC50 [6] was < 31.6 nM. For the same compound, the viability, T/C [7] was 6.55%, the viability, T/C [8] was 3.76% and the viability, T/C [9] was 4.74%. The viability, T/C [10] was 5.45%, the viability, T/C [11] was 5.63% and the viability, T/C [12] was 3.43%. It also gave a viability, T/C [13] of 7.18%, a viability, T/C [14] of 4.04% and a viability, T/C [15] of 4.89%. For the same compound, the viability, T/C [16] was 3%, the viability, T/C [17] was 4.22% and the viability, T/C [18] was 2.03%. It also gave a viability, T/C [19] of 6.96%, a viability, T/C [20] of 5.27% and a viability, T/C [21] of 3.29%. The viability, T/C [22] was 3.59%, the viability, T/C [23] was 3.28% and the viability, T/C [24] was 2.14%. The viability, T/C [25] was 12.8%, the viability, T/C [26] was 6.01% and the viability, T/C [27] was 3.29%. The viability, T/C [28] was 2.77%, the viability, T/C [29] was 3.38% and the viability, T/C [30] was 1.2%. The viability, T/C [31] was 13.6%, the viability, T/C [32] was 6.51% and the viability, T/C [33] was 2.77%. It also gave a viability, T/C [34] of 2.75%, a viability, T/C [35] of 2.62% and a viability, T/C [36] of 0.99%. For the same compound, the viability, T/C [37] was 13.8%, the viability, T/C [38] was 8.14% and the viability, T/C [39] was 4.09%. It also gave a viability, T/C [40] of 2.72%, a viability, T/C [41] of 3.57% and a viability, T/C [42] of 1.76%.
